Here are results for 4 compounds from patent publication US8314113B2, “Substituted dihydroquinazolines II” (Aicuris GmbH & Co. KG, priority 2003, dated 2012).

Data set [1] can be described thus: Cytotoxicity on NHDF cells in the anti-HCMV cytopathogenicity test. It counts as cell-based. To be noted: NHDF cells (human prepuce fibroblasts), visual assessment, concentration at which no visible cytostatic effects are evident. As for the experimental part: (§1) Anti-HCMV (Anti-Human Cytomegalovirus) Cytopathogenicity Tests The test compounds are employed as 50 millimolar (mM) solutions in dimethyl sulphoxide (DMSO). Ganciclovir, Foscarnet and Cidofovir are used as reference compounds. After addition of in each case 2 μl of the 50, 5, 0.5 and 0.05 mM DMSO stock solutions to 98 μl portions of cell culture medium in row […] for duplicate determinations, 1:2 dilutions are carried out with 50 μl portions of medium up to row 11 of the 96-well plate. The wells in rows 1 and 12 each contain 50 μl of medium. Then 150 μl portions of a suspension of 1×10^4 cells (human prepuce fibroblasts [NHDF]) are pipetted into each of the wells (row 1=cell control) and, in rows 2-12, a mixture of HCMV-infected and uninfected NHDF cells (M.O.I.=0.001-0.002), i.e. 1-2 infected cells-per 1000 uninfected cells. Row 12 (without substance) serves as virus control. The final test concentrations are 250-0.0005 μM. The plates are incubated at 37° C./5% CO2 for 6 days, i.e. until all the cells are infected in the virus controls (100% cytopathogenic effect [CPE]). The wells are then fixed and stained by adding a mixture of formalin and Giemsa's dye (30 minutes), washed with double-distilled water and dried in a drying cabinet at 50° C. The plates are then assessed visually using an overhead microscope (Plaque Multiplier from Technomara). The following data can be acquired from the test plates: CC50 (NHDF)=substance concentration in μM at which no visible cytostatic effects on the cells are evident by comparison with the untreated cell control;

For another data set, the system named is HCMV. The data set is described as follows: Anti-HCMV cytopathogenicity test (CPE inhibition). It counts as cell-based, human cytomegalovirus. The note with it: for EC50: read-out: HCMV EC50; for SI HCMV (selectivity index = CC50 (NHDF)/EC50 (HCMV)): ratio CC50 (NHDF)/EC50 (HCMV). The procedure: as §1, with “plates: EC50 (HCMV)=substance” for “plates: CC50 (NHDF)=substance”, “μM” for “μM at”, “which inhibits” for “which no visible cytostatic effects on”, “the CPE (cytopathic effect)” for “the cells are evident”, “by 50% compared” for “by comparison”, “untreated virus” for “untreated cell”

The mark [2] stands for this setting: Human betaherpesvirus 5, NHDF, 144 h.
Where [3] appears, read: Human betaherpesvirus 5, 144 h, HCMV-infected NHDF cells, M.O.I. 0.001-0.002, 6 days, 50% inhibition of CPE.

Structures can show the parent of a compound that is named as a salt. Where two headings read alike, the source gives them in different places.

Regarding `COc1ccc(C(F)(F)F)cc1N1C(C2CCN(c3ccc(F)c(C)c3)CC2)=Nc2c(F)cccc2C1CC(=O)O` (racemic) [Example 1, {8-Fluoro-2-[1-(4-fluoro-3-methylphenyl)piperidin-4-yl]-3-[2-methoxy-5-(trifluoromethyl)phenyl]-3,4-dihydroquinazolin-4-yl}acetic acid hydrochloride], the midpoint of cytotoxicity in data set [1], the CC50 at 6 days, lay at 24 µM. Moreover, the EC50 with HCMV (setting [2]) came out at 0.03 µM. Besides, the “SI HCMV (selectivity index = CC50 (NHDF)/EC50 (HCMV))” value with HCMV worked out at 800.

Regarding `COc1ccc(C(F)(F)F)cc1N1C(C2CCN(c3cccc(C)c3)CC2)=Nc2c(F)cccc2C1CC(=O)O` (stereo not drawn) [Example 3, {8-Fluoro-3-[2-methoxy-5-(trifluoromethyl)phenyl]-2-[1-(3-methylphenyl)piperidin-4-yl]-3,4dihydroquinazolin-4-yl}acetic acid], in data set [1], it took 31 µM to reach half-maximal cytotoxicity (CC50 at 6 days). For the same compound, in the data set on HCMV (setting [3]), the EC50 was found to be 0.1 µM. Also, the “SI HCMV (selectivity index = CC50 (NHDF)/EC50 (HCMV))” value with HCMV is given as 310.

In data set [1], `COc1ccc(C(F)(F)F)cc1N1C(C2CCN(c3ccc(F)c(C)c3)CC2)=Nc2c(F)cccc2C1CC(=O)O` (stereo not drawn) [Example 2, {8-Fluoro-2-[1-(4-fluoro-3-methylphenyl)piperidin-4-yl]-3-[2-methoxy-5-(trifluoromethyl)phenyl]-3,4-dihydroquinazolin-4-yl}acetic acid hydrochloride] came in with a CC50 at 6 days of 31 µM. Moreover, the EC50 in the data set with HCMV (setting [2]) is 0.04 µM. For the same compound, the “SI HCMV (selectivity index = CC50 (NHDF)/EC50 (HCMV))” value with HCMV worked out at 775.

For the compound `COc1ccc(C(F)(F)F)cc1N1C(C2CCN(c3ccc(F)cc3)CC2)=Nc2c(F)cccc2C1CC(=O)O` (stereo not drawn) [Example 4, {8-Fluoro-2-[1-(4-fluorophenyl)piperidin-4-yl]-3-[2-methoxy-5-(trifluoromethyl)-phenyl]-3,4-dihydroquinazolin-4-yl}acetic acid], half-maximal cytotoxicity in data set [1] (CC50 at 6 days) was put at 36 µM. Moreover, the EC50 in the data set on HCMV (setting [3]) came to 0.15 µM. Also, the “SI HCMV (selectivity index = CC50 (NHDF)/EC50 (HCMV))” value in the data set with HCMV turned out to be 237.
